We go through four molecules from US6352958B1, “Cycloimido-substituted benzofused heterocyclic herbicides” (FMC Corporation, priority 1997, dated 2002).

Common to all, as to format: in vivo
For experiment [1], the system named is green foxtail (Setaria viridis). Briefly: Postemergence herbicidal activity, green foxtail. The note with it: rate of application 0.3 Kg/Ha, rated after 12-17 days.
Experiment [2] deals with Johnsongrass (Sorghum halepense). As to the kind of experiment: Postemergence herbicidal activity, johnsongrass. The conditions noted are these: rate of application 0.3 Kg/Ha, rated after 12-17 days.
Experiment [3] has as its system field corn (Zea mays var. Pioneer 3732). As to the kind of experiment: Postemergence herbicidal activity, corn. The conditions noted are these: rate of application 0.3 Kg/Ha, rated after 12-17 days.
Experiment [4] deals with common chickweed (Stellaria media). As to the kind of experiment: Preemergence herbicidal activity, chickweed. The note with it: Rate of Application 0.3 Kg/Ha, examined after 12-17 days.
Experiment [5] has as its system blackgrass (Aloepecurus myosuroides). As to the kind of experiment: Preemergence herbicidal activity, blackgrass. The note with it: Rate of Application 0.3 Kg/Ha, examined after 12-17 days.
Experiment [6] concerns velvetleaf (Abutilon theophrasti). Briefly: Postemergence herbicidal activity, velvetleaf. The note with it: rate of application 0.3 Kg/Ha, rated after 12-17 days.
In experiment [7] the test system is green foxtail (Setaria viridis). Briefly: Preemergence herbicidal activity, green foxtail. The note with it: Rate of Application 0.3 Kg/Ha, examined after 12-17 days.
Experiment [8] relates to wheat (Triticum aestivum var. Lew). Briefly: Postemergence herbicidal activity, wheat. The conditions noted are these: rate of application 0.3 Kg/Ha, rated after 12-17 days.
Experiment [9] concerns field corn (Zea mays var. Pioneer 3732). Briefly: Preemergence herbicidal activity, corn. The conditions noted are these: Rate of Application 0.3 Kg/Ha, examined after 12-17 days.
Experiment [10] deals with morningglory (Ipomea lacunosa or Ipomea hederacea). Briefly: Postemergence herbicidal activity, morningglory. The note with it: rate of application 0.3 Kg/Ha, rated after 12-17 days.
The test system is the same in experiment [11]. As to the kind of experiment: Preemergence herbicidal activity, morningglory. The conditions noted are these: Rate of Application 0.3 Kg/Ha, examined after 12-17 days.
In experiment [12] the test system is velvetleaf (Abutilon theophrasti). As to the kind of experiment: Preemergence herbicidal activity, velvetleaf. The conditions noted are these: Rate of Application 0.3 Kg/Ha, examined after 12-17 days.
The subject of experiment [13] is blackgrass (Aloepecurus myosuroides). Briefly: Postemergence herbicidal activity, blackgrass. The conditions noted are these: rate of application 0.3 Kg/Ha, rated after 12-17 days.
The test system of experiment [14] is soybean (Glycine max var. Winchester). Briefly: Preemergence herbicidal activity, soybean. The conditions noted are these: Rate of Application 0.3 Kg/Ha, examined after 12-17 days.
Experiment [15] deals with common cocklebur (Xanthium strumarium L.). As to the kind of experiment: Preemergence herbicidal activity, cocklebur. The conditions noted are these: Rate of Application 0.3 Kg/Ha, examined after 12-17 days.
For experiment [16], the system named is Johnsongrass (Sorghum halepense). As to the kind of experiment: Preemergence herbicidal activity, johnsongrass. The conditions noted are these: Rate of Application 0.3 Kg/Ha, examined after 12-17 days.
In experiment [17] the test system is soybean (Glycine max var. Winchester). As to the kind of experiment: Postemergence herbicidal activity, soybean. The conditions noted are these: rate of application 0.3 Kg/Ha, rated after 12-17 days.
For experiment [18], the system named is wheat (Triticum aestivum var. Lew). Briefly: Preemergence herbicidal activity, wheat. The conditions noted are these: Rate of Application 0.3 Kg/Ha, examined after 12-17 days.
Experiment [19] deals with common cocklebur (Xanthium strumarium L.). Briefly: Postemergence herbicidal activity, cocklebur. The conditions noted are these: rate of application 0.3 Kg/Ha, rated after 12-17 days.

Turning to `Cn1c(C(F)(F)F)cc(=O)n(-c2ccc(Cl)c3cc(CO)oc23)c1=O` [Compound 238], the “Postemergence herbicidal activity (% control) SETVI” value in experiment [1] came out at 80%. Also, in [2], the “Postemergence herbicidal activity (% control) SORHA” value was 70%. The “Postemergence herbicidal activity (% control) CRN” value in experiment [3] is 70%. Moreover, the “PREEMERGENCE HERBICIDAL ACTIVITY (% CONTROL) STEME” value in experiment [4] came out at 60%. Besides, in experiment [5], the “PREEMERGENCE HERBICIDAL ACTIVITY (% CONTROL) ALOMY” value is 50%. Moreover, the “Postemergence herbicidal activity (% control) ABUTH” value in experiment [6] is 100%. In [7], the “PREEMERGENCE HERBICIDAL ACTIVITY (% CONTROL) SETVI” value is reported as 90%. In addition, the “Postemergence herbicidal activity (% control) WHT” value in experiment [8] stood at 30%. The “PREEMERGENCE HERBICIDAL ACTIVITY (% CONTROL) CRN” value in experiment [9] is listed as 70%. For the same molecule, the “Postemergence herbicidal activity (% control) IPOSS” value in [10] amounted to 100%. The “PREEMERGENCE HERBICIDAL ACTIVITY (% CONTROL) IPOSS” value in [11] worked out at 100%. For the same molecule, the “PREEMERGENCE HERBICIDAL ACTIVITY (% CONTROL) ABUTH” value in [12] was 100%. Further, the “Postemergence herbicidal activity (% control) ALOMY” value in experiment [13] was 40%. Moreover, the “PREEMERGENCE HERBICIDAL ACTIVITY (% CONTROL) SOY” value in experiment [14] worked out at 100%. Besides, in [15], the “PREEMERGENCE HERBICIDAL ACTIVITY (% CONTROL) XANPE” value came to 80%. The “PREEMERGENCE HERBICIDAL ACTIVITY (% CONTROL) SORHA” value in [16] came out at 90%. The “Postemergence herbicidal activity (% control) SOY” value in experiment [17] came out at 80%. In experiment [18], the “PREEMERGENCE HERBICIDAL ACTIVITY (% CONTROL) WHT” value turned out to be 60%. In addition, the “Postemergence herbicidal activity (% control) XANPE” value in experiment [19] is 100%.
Take `Cn1c(C(F)(F)F)cc(=O)n(-c2c(F)cc(Cl)c3oc(NS(C)(=O)=O)nc23)c1=O` [Compound 42]: the “Postemergence herbicidal activity (% control) SETVI” value in experiment [1] came to 100%. For the same molecule, the “Postemergence herbicidal activity (% control) SORHA” value in [2] is given as 20%. Moreover, the “Postemergence herbicidal activity (% control) CRN” value in experiment [3] was determined as 60%. The “PREEMERGENCE HERBICIDAL ACTIVITY (% CONTROL) STEME” value in experiment [4] is 30%. Further, the “PREEMERGENCE HERBICIDAL ACTIVITY (% CONTROL) ALOMY” value in experiment [5] was 50%. The “Postemergence herbicidal activity (% control) ABUTH” value in experiment [6] turned out to be 90%. Moreover, the “PREEMERGENCE HERBICIDAL ACTIVITY (% CONTROL) SETVI” value in experiment [7] is on record as 30%. For the same molecule, the “Postemergence herbicidal activity (% control) WHT” value in experiment [8] is 30%. Moreover, the “PREEMERGENCE HERBICIDAL ACTIVITY (% CONTROL) CRN” value in [9] is listed as 0%. Also, in experiment [10], the “Postemergence herbicidal activity (% control) IPOSS” value is given as 60%. Besides, the “PREEMERGENCE HERBICIDAL ACTIVITY (% CONTROL) IPOSS” value in experiment [11] turned out to be 60%. In addition, the “PREEMERGENCE HERBICIDAL ACTIVITY (% CONTROL) ABUTH” value in [12] turned out to be 100%. The “Postemergence herbicidal activity (% control) ALOMY” value in [13] came out at 40%. Further, the “PREEMERGENCE HERBICIDAL ACTIVITY (% CONTROL) SOY” value in [14] came out at 0%. The “PREEMERGENCE HERBICIDAL ACTIVITY (% CONTROL) XANPE” value in experiment [15] is 20%. In addition, the “PREEMERGENCE HERBICIDAL ACTIVITY (% CONTROL) SORHA” value in experiment [16] was 0%. Further, the “Postemergence herbicidal activity (% control) SOY” value in experiment [17] was 65%. Moreover, the “PREEMERGENCE HERBICIDAL ACTIVITY (% CONTROL) WHT” value in [18] is 10%. The “Postemergence herbicidal activity (% control) XANPE” value in [19] was found to be 50%.
Take `Cn1c(C(F)(F)F)cc(=O)n(-c2c(F)cc(Cl)c3nc(COc4ccccc4)[nH]c23)c1=O` [Compound 378]: the “Postemergence herbicidal activity (% control) SETVI” value in [1] is 100%. In addition, in [2], the “Postemergence herbicidal activity (% control) SORHA” value is reported as 100%. For the same molecule, in [3], the “Postemergence herbicidal activity (% control) CRN” value was determined as 90%. Further, the “PREEMERGENCE HERBICIDAL ACTIVITY (% CONTROL) STEME” value in experiment [4] was found to be 100%. Besides, the “PREEMERGENCE HERBICIDAL ACTIVITY (% CONTROL) ALOMY” value in [5] turned out to be 80%. The “Postemergence herbicidal activity (% control) ABUTH” value in [6] came out at 100%. Besides, the “PREEMERGENCE HERBICIDAL ACTIVITY (% CONTROL) SETVI” value in [7] stood at 100%. Further, the “Postemergence herbicidal activity (% control) WHT” value in experiment [8] was found to be 40%. The “PREEMERGENCE HERBICIDAL ACTIVITY (% CONTROL) CRN” value in experiment [9] amounted to 90%. Further, the “Postemergence herbicidal activity (% control) IPOSS” value in experiment [10] came to 90%. Also, the “PREEMERGENCE HERBICIDAL ACTIVITY (% CONTROL) IPOSS” value in experiment [11] worked out at 100%. Moreover, the “PREEMERGENCE HERBICIDAL ACTIVITY (% CONTROL) ABUTH” value in experiment [12] amounted to 100%. In addition, the “Postemergence herbicidal activity (% control) ALOMY” value in [13] came out at 80%. In [14], the “PREEMERGENCE HERBICIDAL ACTIVITY (% CONTROL) SOY” value is recorded as 90%. In addition, in [15], the “PREEMERGENCE HERBICIDAL ACTIVITY (% CONTROL) XANPE” value turned out to be 100%. In addition, the “PREEMERGENCE HERBICIDAL ACTIVITY (% CONTROL) SORHA” value in experiment [16] was 95%. Also, the “Postemergence herbicidal activity (% control) SOY” value in experiment [17] is given as 90%. The “PREEMERGENCE HERBICIDAL ACTIVITY (% CONTROL) WHT” value in experiment [18] was determined as 70%. The “Postemergence herbicidal activity (% control) XANPE” value in experiment [19] is 100%.
As to `C=CCOc1nc2c(-n3c(=O)cc(C(F)(F)F)n(C)c3=O)c(F)cc(Br)c2o1` [Compound 110], the “Postemergence herbicidal activity (% control) SETVI” value in [1] is on record as 80%. The “Postemergence herbicidal activity (% control) SORHA” value in experiment [2] is on record as 70%. In addition, in experiment [3], the “Postemergence herbicidal activity (% control) CRN” value worked out at 50%. The “PREEMERGENCE HERBICIDAL ACTIVITY (% CONTROL) STEME” value in experiment [4] came to 100%. Besides, the “PREEMERGENCE HERBICIDAL ACTIVITY (% CONTROL) ALOMY” value in experiment [5] turned out to be 80%. Moreover, the “Postemergence herbicidal activity (% control) ABUTH” value in [6] came to 100%. The “PREEMERGENCE HERBICIDAL ACTIVITY (% CONTROL) SETVI” value in [7] is 100%. Further, the “Postemergence herbicidal activity (% control) WHT” value in [8] amounted to 40%. Besides, the “PREEMERGENCE HERBICIDAL ACTIVITY (% CONTROL) CRN” value in experiment [9] worked out at 70%. The “Postemergence herbicidal activity (% control) IPOSS” value in [10] is recorded as 100%. In addition, the “PREEMERGENCE HERBICIDAL ACTIVITY (% CONTROL) IPOSS” value in experiment [11] came to 90%. In addition, the “PREEMERGENCE HERBICIDAL ACTIVITY (% CONTROL) ABUTH” value in [12] is reported as 100%. Also, in experiment [13], the “Postemergence herbicidal activity (% control) ALOMY” value was 70%. Besides, the “PREEMERGENCE HERBICIDAL ACTIVITY (% CONTROL) SOY” value in experiment [14] came out at 100%. Further, the “PREEMERGENCE HERBICIDAL ACTIVITY (% CONTROL) XANPE” value in [15] came out at 40%. Also, the “PREEMERGENCE HERBICIDAL ACTIVITY (% CONTROL) SORHA” value in experiment [16] turned out to be 100%. The “Postemergence herbicidal activity (% control) SOY” value in experiment [17] is on record as 80%. For the same molecule, the “PREEMERGENCE HERBICIDAL ACTIVITY (% CONTROL) WHT” value in [18] stood at 50%. In addition, in experiment [19], the “Postemergence herbicidal activity (% control) XANPE” value is reported as 100%.
